{"source": "patent US6770593B1", "about": "“Fertilizer” (Mandops (UK) Limited, priority 1999, dated 2004)", "assay_type_in_all_cases": "in vivo", "key": {"Powdery Mildew [1]": {"test_system": "Powdery Mildew", "assay": "Powdery mildew on spring barley, with chlormequat (Table E1)", "conditions": "applied at 3 leaves stage, CCC 1.25 l/ha, ATS 1.25 l/ha, KS 20 g/ha"}, "Spring Barley [2]": {"test_system": "Spring Barley", "assay": "Growth of spring barley, with chlormequat (Table E1)", "conditions": "applied at 3 leaves stage, CCC 1.25 l/ha, ATS 1.25 l/ha, KS 20 g/ha"}, "Powdery Mildew [3]": {"test_system": "Powdery Mildew", "assay": "Powdery mildew on spring barley, with chlormequat at T1 and T2 (Table E2)", "conditions": "applied at T1 (3 leaves stage) & T2 (prior to start of stem extension), CCC 0.8 l/ha, ATS 0.8 l/ha, KS 20 g/ha"}, "Spring Barley [4]": {"test_system": "Spring Barley", "assay": "Tillers of spring barley, with chlormequat at T1 and T2 (Table E2)", "conditions": "applied at T1 (3 leaves stage) & T2 (prior to start of stem extension), CCC 0.8 l/ha, ATS 0.8 l/ha, KS 20 g/ha"}}, "data": [{"smiles": "C[N+](C)(C)CCCl.[Cl-]", "note": "[CCC, Chlormequat]", "values": [{"measurement": "Powdery Mildew (%) at +15 days", "setting": "Powdery Mildew [1]", "value": 15, "unit": "%"}, {"measurement": "Above Ground Dry Weight (g) Total of 10 plants", "setting": "Spring Barley [2]", "value": 3.7, "unit": "g"}, {"measurement": "Above Ground Fresh Weight (g) Total of 10 plants", "setting": "Spring Barley [2]", "value": 34.0, "unit": "g"}, {"measurement": "Amount of Rooting (0-9) Mean of 10 plants", "setting": "Spring Barley [2]", "value": 5.5}, {"measurement": "Powdery Mildew (%) at +12 days", "setting": "Powdery Mildew [3]", "value": 8, "unit": "%"}, {"measurement": "Powdery Mildew (%) at +15 days", "setting": "Powdery Mildew [3]", "value": 8, "unit": "%"}, {"measurement": "Powdery Mildew (%) at +18 days", "setting": "Powdery Mildew [3]", "value": 10, "unit": "%"}, {"measurement": "Number of Tillers Initiated per Plant (mean of 10 plants)", "setting": "Spring Barley [4]", "value": 3.5}]}]}
